Reference: patent publication US7868037B2 (PTC Therapeutics, Inc., priority 2004, dated 2011)
pIC50: −log10 of the molar value.

tested on: HCV replicon; assay: microbe, parasite or virus in culture; assay type: cell-based, hepatitis C virus; details: Hepatitis C virus, read-out: Replicon IC50 μM

Row | Molecule | IC50
1 | CCn1c(-c2ccc(O)c(N)c2)c(C#N)c2ccc(OC)cc21 [Compound 322, 2-(3-amino-4-hydroxyphenyl)-1-ethyl-6-methoxy-1H-indole-3-carbonitrile] | > 2 µM
2 | CCn1c(-c2ccc(N(CCOC(C)=O)S(C)(=O)=O)cc2)c(C#N)c2ccc(OC)cc21 [Compound 815, N-(2-acetoxyethyl)-N-[4-(3-cyano-1-ethyl-6-methoxy-1H-indol-2-yl)-phenyl]methanesulfonamide] | > 2 µM
3 | CCn1c(C#Cc2ccc(NC(=O)C3CC3)cc2)c(C#N)c2ccc(O)cc21 [Compound 194, cyclopropanecarboxylic acid [4-(3-cyano-1-ethyl-6-hydroxy-1H-indol-2-ylethynyl)-phenyl]amide] | 0.5 to 2 µM
4 | CCOC(=O)CNC(=O)Nc1ccc(-c2c(C#N)c3ccc(OCC)cc3n2CC)cc1 [Compound 773, ethyl {3-[4-(3-cyano-6-ethoxy-1-ethyl-1H-indol-2-yl)-phenyl]-ureido}-acetate] | 0.5 to 2 µM
5 | CCn1c(-c2ccc3c(c2)NC(=O)CO3)c(C#N)c2ccc(OC)cc21 [Compound 334, 1-ethyl-6-methoxy-2-(3-oxo-3,4-dihydro-2H-benzo[1,4]oxazin-6-yl)-1H-indole-3-carbonitrile] | 0.5 to 2 µM
6 | CCn1c(C#Cc2ccc(N3CCNC3=O)cc2)c(C#N)c2ccc(OC)cc21 [Compound 166, 1-ethyl-6-methoxy-2-[4-(2-oxo-imidazolidin-1-yl)-phenylethynyl]-1H-indole-3-carbonitrile] | < 0.5 µM
7 | CCn1c(-c2ccc3oc(=O)[nH]c3c2)c(C#N)c2ccc(OC)cc21 [Compound 332, 1-ethyl-6-methoxy-2-(2-oxo-2,3-dihydro-benzooxazol-5-yl)-1H-indole-3-carbonitrile] | > 2 µM
8 | CCn1c(-c2ccc([N+](=O)[O-])cc2)c(C#N)c2cc(C(C)=O)c(OC)cc21 [Compound 844, 5-acetyl-1-ethyl-6-methoxy-2-(4-nitro-phenyl)-1H-indole-3-carbonitrile] | > 2 µM
9 | CCn1c(-c2ccc(N3CCNC3=O)cc2)c(C#N)c2ccc(OC)cc21 [Compound 771, 1-ethyl-6-methoxy-2-[4-(2-oxo-imidazolidin-1-yl)-phenyl]-1H-indole-3-carbonitrile] | < 0.5 µM
10 | CCn1c(-c2ccc(NC(=O)NCCCl)cc2)c(C#N)c2ccc(OC)cc21 [Compound 442, 1-(2-chloroethyl)-3-[4-(3-cyano-1-ethyl-6-methoxy-1H-indol-2-yl)-phenyl]-urea] | > 2 µM
11 | CCn1c(-c2ccc(NS(=O)(=O)CCN3CCOCC3)cc2)c(C#N)c2ccc(OC)cc21 [Compound 653, 2-morpholin-4-yl-ethanesulfonic acid [4-(3-cyano-1-ethyl-6-methoxy-1H-indol-2-yl)-phenyl]amide] | > 2 µM
12 | CCn1cc(-c2nccs2)c2ccc(OC)cc21 [Compound 73, 1-ethyl-6-methoxy-3-thiazol-2-yl-1H-indole] | > 2 µM
13 | COc1ccc(-n2cc(C#N)c3cc4c(cc32)OCO4)cc1 [Compound 44, 5-(4-methoxyphenyl)-5H-[1,3]dioxolo[4,5-f]indole-7-carbonitrile] | > 2 µM
14 | CCn1c(-c2ccc([N+](=O)[O-])cc2)c(C#N)c2cc(CN3CCOCC3)c(OC)cc21 [Compound 845, 1-ethyl-6-methoxy-5-morpholin-4-ylmethyl-2-(4-nitro-phenyl)-1H-indole-3-carbonitrile] | > 2 µM
15 | CCn1c(-c2ccc(N3CCOC3=O)cc2)c(C#N)c2ccc(OC(C)C)cc21 [Compound 638, 1-ethyl-6-isopropoxy-2-[4-(2-oxo-oxazolidin-3-yl)-phenyl]-1H-indole-3-carbonitrile] | > 2 µM

same assay, conditions: Hepatitis C virus, read-out: Replicon IC50

Row | Molecule | pIC50
16 | CCn1c(-c2ccc(NS(C)(=O)=O)cc2)c(C#N)c2ccc(OCCN3CCOCC3)cc21 [Compound 478, N-{4-[3-cyano-1-ethyl-6-(2-morpholin-4-yl-ethoxy)-1H-indol-2-yl]-phenyl}methanesulfonamide] | > 6.30
17 | CCOC(=O)Nc1cccc(-c2c(C#N)c3ccc(OCCCN4CCCC4)cc3n2CC)c1 [Compound 530, {3-[3-cyano-1-ethyl-6-(3-pyrrolidin-1-yl-propoxy)-1H-indol-2-yl]-phenyl}-carbamic acid ethyl ester] | > 6.30

same assay, conditions: read-out: Replicon IC50

Row | Molecule | pIC50
18 | CCn1c(C#Cc2ccc(NP(C)(C)=O)cc2)c(C#N)c2ccc(OC)cc21 [Compound 227, N-[4-(3-cyano-1-ethyl-6-methoxy-1H-indol-2-ylethynyl)-phenyl]-dimethylphosphinic amide] | 5.70 to 6.30
19 | CCn1cc(-c2ccon2)c2ccc(OC)cc21 [Compound 57, 1-ethyl-3-isoxazol-3-yl-6-methoxy-1-H-indole] | < 5.70
20 | CCn1c(-c2ccc(NC(=O)C3CC3)cc2)c(C#N)c2cc(OC)ccc21 [Compound 244] | 5.70 to 6.30
21 | N-(2-chloro-ethyl)-N′-[4-(3-cyano-1-ethyl-6-methoxy-1H-indol-2-yl)phenyl]sulfamide [Compound 724] | 5.70 to 6.30
22 | C=Cn1c(-c2ccc(NS(=O)(=O)CCCCl)cc2)c(C#N)c2ccc(OC)cc21 [Compound 636] | 5.70 to 6.30
23 | ethanesulfonic acid [4-(3-cyano-6-difluoromethoxy-1-ethyl-1H-indol-2-yl)-phenyl]-amide [Compound 519] | > 6.30

tested on: not given; assay: not given; details: not given

Row | melting point | Molecule
24 | 147 to 148 °C | C=CCn1c(-c2ccc(N3CCCC3=O)cc2)c(C#N)c2ccc(OC)cc21 [Compound 938, 1-allyl-6-methoxy-2-[4-(2-oxopyrrolidin-1-yl)-phenyl]-1H-indole-3-carbonitrile]
25 | 208 °C | CC(C)OC(=O)Nc1ccc(-c2c(C#N)c3ccc(OCCCn4cncn4)cc3n2C2CCC2)cc1 [Compound 1255, {4-[3-cyano-1-cyclobutyl-6-(3-[1,2,4]triazol-1-yl-propoxy)-1H-indol-2-yl]-phenyl}-carbamic acid isopropyl ester]
26 | 135 to 141 °C | CCOc1ccc2c(C#N)c(-c3ccc(N(CC)CC)cc3)n(C3CCC3)c2c1 [Compound 1217, 1-Cyclobutyl-2-(4-diethylamino-phenyl)-6-ethoxy-1H-indole-3-carbonitrile]
27 | 187 to 193 °C | CCNc1ccc(-c2c(C#N)c3ccc(OCC)cc3n2C2CCC2)cc1 [Compound 1239, 1-cyclobutyl-6-ethoxy-2-(4-ethylaminophenyl)-1H-indole-3-carbonitrile]
28 | 230 to 232 °C | CCn1c(-c2ccc(N3CCCS3(=O)=O)cc2)c(C#N)c2ccc(OC(F)(F)F)cc21 [Compound 903, 2-[4-(1,1-dioxidoisothiazolidin-2-yl)phenyl]-1-ethyl-6-(trifluoromethoxy)indole-3-carbonitrile]
29 | 98 °C | CC(OC(=O)Nc1ccc(-c2c(C#N)c3ccc(OCCn4cncn4)cc3n2C2CCC2)cc1)C1CC1 (stereo not shown) [Compound 1329, {4-[3-cyano-1-cyclobutyl-6-(2-[1,2,4]triazol-1-yl-ethoxy)-1H-indol-2-yl]-phenyl}-carbamic acid 1-cyclopropyl-ethyl ester]
30 | 232 to 234 °C | CCn1c(-c2ccc(N3CCCS3(=O)=O)cc2)c(C#N)c2ccc(OC3CC3)cc21 [Compound 1046, 6-cyclopropoxy-2-[4-(1,1-dioxo-1λ^6-isothiazolidin-2-yl)-phenyl]-1-ethyl-1H-indole-3-carbonitrile]
31 | 214 °C | CC(C)OC(=O)Nc1ccc(-c2c(C#N)c3ccc(OCCn4cncn4)cc3n2C2CCC2)cc1 [Compound 1276, {4-[3-cyano-1-cyclobutyl-6-(2-[1,2,4]triazol-1-yl-ethoxy)-1H-indol-2-yl]-phenyl}-carbamic acid isopropyl ester]
32 | 177 to 178 °C | CCn1c(-c2ccc(NC(=O)OC)cc2)c(C#N)c2ccc(OC(F)F)cc21 [Compound 1130, [4-(3-cyano-6-difluoromethoxy-1-ethyl-1H-indol-2-yl)-phenyl]-carbamic acid methyl ester]
33 | 194 to 195 °C | CCn1c(-c2ccc(NS(=O)(=O)CC)cc2)c(C#N)c2ccc(OC(F)(F)F)cc21 [Compound 881, ethanesulfonic acid [4-(3-cyano-1-ethyl-6-trifluoromethoxyindol-2-yl)phenyl]amide]
34 | 202.3 to 205.9 °C | CCn1c(-c2ccc(NC(=O)C3CC3)cc2)c(C#N)c2ccc(OCCn3ccnc3)cc21 [Compound 1183, cyclopropanecarboxylic acid {4-[3-cyano-1-ethyl-6-(2-imidazol-1-yl-ethoxy)-1H-indol-2-yl]-phenyl}-amide]
35 | 260 to 266 °C | CCOc1ccc2c(C#N)c(-c3ccc(NC(=O)N4CCOCC4)cc3)n(C3CCC3)c2c1 [Compound 1166, morpholine-4-carboxylic acid [4-(3-cyano-1-cyclobutyl-6-ethoxy-1H-indol-2-yl)-phenyl]-amide]
36 | 154 to 158 °C | CCOc1ccc2c(C#N)c(-c3ccc(NC(=O)OC(C)C4CC4)cc3)n(C3CCC3)c2c1 (racemic) [Compound 1147, rac-[4-(3-cyano-1-cyclobutyl-6-ethoxy-1H-indol-2-yl)-phenyl]-carbamic acid 1-cyclopropyl-ethyl ester]
37 | 137 to 142 °C | CCOc1ccc2c(C#N)c(-c3ccc(N(CC)C(=O)OC4CCCC4)cc3)n(C3CCC3)c2c1 [Compound 1251, [4-(3-cyano-1-cyclobutyl-6-ethoxy-1H-indol-2-yl)-phenyl]-ethyl-carbamic acid cyclopentyl ester]
38 | 88 to 90 °C | CC(C)NC(=O)Nc1ccc(-c2c(C#N)c3ccc(OCCCn4cncn4)cc3n2C2CCC2)cc1 [Compound 1314, 1-{4-[3-cyano-1-cyclobutyl-6-(3-[1,2,4]triazol-1-yl-propoxy)-1H-indol-2-yl]-phenyl}-3-isopropyl-urea]
39 | 204 to 205 °C | COc1ccc2c(C#N)c(-c3ccc(NC(=O)OC(C)C)cc3)n(C3CC3)c2c1 [Compound 1234, [4-(3-cyano-1-cyclopropyl-6-methoxyindol-2-yl)phenyl]carbamic acid isopropyl ester]

Row | Molecule | melting point
40 | CCn1c(-c2ccc(NS(C)(=O)=O)cc2)c(C#N)c2ccc(OCCN3CCOCC3)cc21 [Compound 478, N-{4-[3-cyano-1-ethyl-6-(2-morpholin-4-yl-ethoxy)-1H-indol-2-yl]-phenyl}methanesulfonamide] | 172 to 175 °C
41 | CCn1c(-c2ccc(O)c(N)c2)c(C#N)c2ccc(OC)cc21 [Compound 322, 2-(3-amino-4-hydroxyphenyl)-1-ethyl-6-methoxy-1H-indole-3-carbonitrile] | 223 to 230 °C
42 | CCn1c(-c2ccc(N(CCOC(C)=O)S(C)(=O)=O)cc2)c(C#N)c2ccc(OC)cc21 [Compound 815, N-(2-acetoxyethyl)-N-[4-(3-cyano-1-ethyl-6-methoxy-1H-indol-2-yl)-phenyl]methanesulfonamide] | 153 to 154 °C
43 | CCn1c(C#Cc2ccc(NC(=O)C3CC3)cc2)c(C#N)c2ccc(O)cc21 [Compound 194, cyclopropanecarboxylic acid [4-(3-cyano-1-ethyl-6-hydroxy-1H-indol-2-ylethynyl)-phenyl]amide] | 278 to 284 °C
44 | CCOC(=O)CNC(=O)Nc1ccc(-c2c(C#N)c3ccc(OCC)cc3n2CC)cc1 [Compound 773, ethyl {3-[4-(3-cyano-6-ethoxy-1-ethyl-1H-indol-2-yl)-phenyl]-ureido}-acetate] | 191 to 193 °C
45 | CCn1c(-c2ccc3c(c2)NC(=O)CO3)c(C#N)c2ccc(OC)cc21 [Compound 334, 1-ethyl-6-methoxy-2-(3-oxo-3,4-dihydro-2H-benzo[1,4]oxazin-6-yl)-1H-indole-3-carbonitrile] | 242 to 246 °C
46 | CCn1c(C#Cc2ccc(N3CCNC3=O)cc2)c(C#N)c2ccc(OC)cc21 [Compound 166, 1-ethyl-6-methoxy-2-[4-(2-oxo-imidazolidin-1-yl)-phenylethynyl]-1H-indole-3-carbonitrile] | 236 to 240 °C
